Series [1] can be described thus: Oral bioavailability of ibuprofen crushed tablets in control and vagal-suppressed (Pain Model) rats. The series is classed as in vivo, Sprague-Dawley rats. The settings on record: Pain Model (vagal-suppressed, propantheline) rats, 20 mg/kg oral. The source says: Delayed absorption caused by vagal suppression that has previously been reported in the literature (e.g., Jamali & Axelson, 1997) was used to test the absorption rates of new meloxicam formulations.
The animal models are adult male Sprague-Dawley rats with body weight of 250-300 g, and which were cared for in accordance with the principles and guidelines of the Canadian Council of Animal Care. All rats were catheterized in the right jugular vein for sample collection.
An animal model having suppressed vagal properties were produced by administering (intraperitoneal injection) to the rats two 20 mg/kg doses of propantheline (test, n=6), an anticholinergic agent with known vagal suppressive properties, the first dose at 2 hours prior to administration of an NSAID, and the second at 1 hour prior.
The tablets were crushed gently and small pieces were administered into the stomach via a plastic tube followed by 0.5 mL tap water. Animals were fasted after the first dose of propantheline until 4 hours post-meloxicam dose. They had free access to water.

The conditions of series [2]: 200 mg and 600 mg doses, dental surgery; cited from earlier work.
Series [3] in a line: Solubility of meloxicam in simulated gastric fluid pH 1.2. Conditions: for solubility at 72 h: simulated gastric fluid, pH 1.2, simulated gastric fluid, thermodynamic from solid. The series is classed as physicochemical. As to the method: Excess of different compositions and pure meloxicam powder were transferred into test tubes.
10 ml of USP simulated gastric fluid, pH 1.2 (SGF) was added.
Samples were shaken for 72 h at room temperature.
Filtered solutions were analyzed for meloxicam.

For series [4] the following is noted: pH 2-4; cited from earlier work.

In brackets after ≈: the same amount, converted by molar mass. Marks after values point to notes of the source that are not given here.

Take `CC(C)Cc1ccc(C(C)C(=O)O)cc1` (racemic) [ibuprofen]: in series [1], the “AUC (0-8)” value is listed as 81.8 μg/h/mL^−1, the Cmax is reported as 13.8* μg/mL and the Tmax was 45 min. In addition, the “delay in the mean time to peak concentration caused by surgery” value in series [2] is reported as “two”.
In the case of `Cc1cnc(NC(=O)C2=C(O)c3ccccc3S(=O)(=O)N2C)s1` [meloxicam], the “solubility in simulated gastric fluid when loaded on Neusilin® and mixed with Gelucire® 44/14” value in series [3] (pH 1.2, FIG. 7) is “substantially increased”. Also, the solubility at 72 h in series [3] (pH 1.2, combination of Gelucire® and Neusilin®) was 11500 µg/mL; in series [3] (pH 1.2, meloxicam alone), 7 µg/mL (≈ 19.9 µM); in series [3] (pH 1.2, with Gelucire® alone) it was 10 µg/mL (≈ 28.5 µM); in series [3] (pH 1.2, with the metal silicate alone), 23 to 41 µg/mL (≈ 65.5 to 117 µM). Besides, in series [4], the “minimum solubility in buffered aqueous systems” value is recorded as “less than 0.5 µg/ml”.

Broadly, the Tmax is the time from dosing to the highest level. For orientation: solubility means the concentration that dissolves in the medium under given conditions.

The record behind these values is patent US20080255104A1, “Nsaid Compositions” (EQUITECH CORPORATION, priority 2004, published 2008).
